According to patent US20240174603A1 (Rappta Therapeutics Oy, priority 2021, published 2024):

The compounds below were run on LNCaP cells (assay: LNCaP cell viability assay (MTS)). Conditions: Homo sapiens, LNCaP cell line, 48 hours.
Type: cell-based
Method in brief: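 LNCaP cells (5000/well) treated 24 h after plating with compound at 1–80 µM for 48 h. Relative cell number read by MTS; GI50 from four-parameter variable-slope log(inhibitor) fit with bottom constrained to zero.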

SMILES | GI50 [µM]
CN(C)CC(NS(=O)(=O)c1ccc(OC2CC2)cc1)c1ccc(Cl)c(Cl)c1 (centres unmarked) [Compound 154, 4-cyclopropoxy-N-(1-(3,4-dichlorophenyl)-2-(dimethylamino)ethyl)benzenesulfonamide] | 53.8

Same assay, conditions: Homo sapiens, LNCaP, 48 h, LNCaP cell line

GI50 [µM] | SMILES
24.3 | CN(C)CC(NS(=O)(=O)CCc1ccccc1)c1ccc(Cl)c(Cl)c1 (centres unmarked) [Compound 136, N-(1-(3,4-dichlorophenyl)-2-(dimethylamino)ethyl)-2-phenylethane-1-sulfonamide]
24.1 | Cc1cccc(CC(CO)NS(=O)(=O)c2ccc(OC(F)(F)F)cc2)c1 (centres unmarked) [Compound 9, N-(1-hydroxy-3-(m-tolyl)propan-2-yl)-4-(trifluoromethoxy)benzenesulfonamide]
45 | CC1CCCC(CNS(=O)(=O)c2ccc(OC(F)(F)F)cc2)(N(C)C)C1 (centres unmarked) [Compound 99, N-((1-(dimethylamino)-3-methylcyclohexyl)methyl)-4-(trifluoromethoxy)benzenesulfonamide]
53.7 | O=S(=O)(NC(CN1CCOCC1)c1ccc(Cl)c(Cl)c1)c1ccc(OC(F)(F)F)cc1 (centres unmarked) [Compound 169, N-(1-(3,4-dichlorophenyl)-2-morpholinoethyl)-4-(trifluoromethoxy)benzenesulfonamide]
49.5 | CN(C)CC(NS(=O)(=O)c1ccc(Cl)c(F)c1)c1ccc(Cl)c(Cl)c1 (centres unmarked) [Compound 217, 4-chloro-N-(1-(3,4-dichlorophenyl)-2-(dimethylamino)ethyl)-3-fluorobenzenesulfonamide]
75.6 | CN(C)CC(NS(=O)(=O)c1cc(F)cc(F)c1)c1ccc(Cl)c(Cl)c1 (centres unmarked) [Compound 134, N-(1-(3,4-dichlorophenyl)-2-(dimethylamino)ethyl)-3,5-difluorobenzenesulfonamide]
51.7 | O=S(=O)(NCC1(c2ccc(Cl)c(Cl)c2)CCCC1)c1ccc(OC(F)(F)F)cc1 [Compound 243, N-((1-(3,4-dichlorophenyl)cyclopentyl)methyl)-4-(trifluoromethoxy)benzenesulfonamide]
58.5 | CN(C)CC(NS(=O)(=O)c1ccc(Cl)cc1F)c1ccc(Cl)c(Cl)c1 (centres unmarked) [Compound 160, 4-chloro-N-(1-(3,4-dichlorophenyl)-2-(dimethylamino)ethyl)-2-fluorobenzenesulfonamide]
25 | CC(NS(=O)(=O)c1ccc(OC(F)(F)F)cc1)C1(c2ccc(Br)cc2)CC1 (centres unmarked) [Compound 70, N-(1-(1-(4-bromophenyl)cyclopropyl)ethyl)-4-(trifluoromethoxy)benzenesulfonamide]
31.1 | O=[N+]([O-])c1cc(S(=O)(=O)NCC2(c3ccc(Cl)c(Cl)c3)CC2)ccc1OC(F)(F)F [Compound 232, N-((1-(3,4-dichlorophenyl)cyclopropyl)methyl)-3-nitro-4-(trifluoromethoxy)benzenesulfonamide]

Second part, the compound before the results:

SMILES | GI50 [µM]
CNS(=O)(=NC(CN(C)C)c1ccc(Cl)c(Cl)c1)c1ccc(OC(F)(F)F)cc1 (centres unmarked) [Compound 127, N′-(1-(3,4-dichlorophenyl)-2-(dimethylamino)ethyl)-N-methyl-4-(trifluoromethoxy)benzenesulfonimidamide] | 51.9
CN(C)CC(NS(=O)(=O)c1ccc(C(F)(F)F)c([N+](=O)[O-])c1)c1ccc(Cl)c(Cl)c1 (centres unmarked) [Compound 266, N-(1-(3,4-dichlorophenyl)-2-(dimethylamino)ethyl)-3-nitro-4-(trifluoromethyl)benzenesulfonamide] | 41.9
Cc1ccccc1S(=O)(=O)NC(CN(C)C)c1ccc(Cl)c(Cl)c1 (centres unmarked) [Compound 131, N-(1-(3,4-dichlorophenyl)-2-(dimethylamino)ethyl)-2-methylbenzenesulfonamide] | 49
O=S(=O)(NCC1(Cc2ccc(Br)cc2)CC1)c1ccc(OC(F)(F)F)cc1 [Compound 81, N-((1-(4-bromobenzyl)cyclopropyl)methyl)-4-(trifluoromethoxy)benzenesulfonamide] | 40
CN(C)CC(NS(=O)(=O)c1ccc(NC2CCCC2)cc1)c1ccc(Cl)c(Cl)c1 (centres unmarked) [Compound 251, 4-(cyclopentylamino)-N-(1-(3,4-dichlorophenyl)-2-(dimethylamino)ethyl)benzenesulfonamide] | 22.4
CCOC(=O)C(Cc1ccccc1Cl)NS(=O)(=O)c1ccc(OC(F)(F)F)cc1 (centres unmarked) [Compound 45, Ethyl 3-(2-chlorophenyl)-2-((4-(trifluoromethoxy)phenyl)sulfonamido)propanoate] | 46
CN(C)CC(NS(=O)(=O)c1ccc(C2CCCCO2)cc1)c1ccc(Cl)c(Cl)c1 (centres unmarked) [Compound 239, N-(1-(3,4-dichlorophenyl)-2-(dimethylamino)ethyl)-4-(tetrahydro-2H-pyran-2-yl)benzenesulfonamide] | 28.2
CC(C)CC(NS(=O)(=O)c1ccc(OC(F)(F)F)cc1)C(=O)Nc1nccs1 (centres unmarked) [Compound 109, 4-methyl-N-(thiazol-2-yl)-2-((4-(trifluoromethoxy)phenyl)sulfonamido)pentanamide] | 25
O=S(=O)(NC(c1cccc(Cl)c1)C1CCCC1)c1ccc(OC(F)(F)F)cc1 (centres unmarked) [Compound 41, N-((3-chlorophenyl)(cyclopentyl)methyl)-4-(trifluoromethoxy)benzenesulfonamide] | 37.3
O=S(=O)(NCC1(c2cc(C(F)(F)F)ccc2Cl)CC1)c1ccc(OC(F)(F)F)cc1 [Compound 88, N-((1-(2-chloro-5-(trifluoromethyl)phenyl)cyclopropyl)methyl)-4-(trifluoromethoxy)benzenesulfonamide] | 25
CCCCC(NS(=O)(=O)c1ccc(OC(F)(F)F)cc1)C(=O)OC(C)(C)C (centres unmarked) [Compound 5, Tert-butyl 2-((4-(trifluoromethoxy)phenyl)sulfonamido)hexanoate] | 39.5
CCOC(=O)C(CC(C)CC)NS(=O)(=O)c1ccc(OC(F)(F)F)cc1 (centres unmarked) [Compound 47, Ethyl 4-methyl-2-((4-(trifluoromethoxy)phenyl)sulfonamido)hexanoate] | 70
CCC[C@@H](NS(=O)(=O)c1ccc(OC(F)(F)F)cc1)c1ccc2c(c1)OCO2 [Compound 73, (R)—N-(1-(benzo[d][1,3]dioxol-5-yl)butyl)-4-(trifluoromethoxy)benzenesulfonamide] | 38
CN(C)CC(NS(=O)(=O)c1ccc(Oc2ccc(F)cc2)cc1)c1ccc(Cl)c(Cl)c1 (centres unmarked) [Compound 221, N-(1-(3,4-dichlorophenyl)-2-(dimethylamino)ethyl)-4-(4-fluorophenoxy)benzenesulfonamide] | 26.6
CN(C)CC(NS(=O)(=O)c1ccc(OC(F)(F)F)c(Cl)c1)c1ccc(Cl)c(Cl)c1 (centres unmarked) [Compound 152, 3-chloro-N-(1-(3,4-dichlorophenyl)-2-(dimethylamino)ethyl)-4-(trifluoromethoxy)benzenesulfonamide] | 12.1
CN1CCN(CC(NS(=O)(=O)c2ccc(Oc3ccc(C(F)(F)F)cc3)cc2)c2ccc(Cl)cc2)CC1 (centres unmarked) [Compound 235, N-(1-(4-chlorophenyl)-2-(4-methylpiperazin-1-yl)ethyl)-4-(4-(trifluoromethyl)phenoxy)benzenesulfonamide] | 11.3
CN(C)CC(NS(=O)(=O)c1ccc(Oc2ccc(C(F)(F)F)cc2)cc1)c1cccc(C(F)(F)F)c1 (centres unmarked) [Compound 193, N-(2-(dimethylamino)-1-(3-(trifluoromethyl)phenyl)ethyl)-4-(4-(trifluoromethyl)phenoxy)benzenesulfonamide] | 19.6
O=S(=O)(NC(c1ccc(F)cc1)C1CCCO1)c1ccc(OC(F)(F)F)cc1 (centres unmarked) [Compound 101, N-((4-fluorophenyl)(tetrahydrofuran-2-yl)methyl)-4-(trifluoromethoxy)benzenesulfonamide] | 33
CN(C)CC(NS(=O)(=O)c1ccc(Oc2ccccn2)cc1)c1ccc(Cl)c(Cl)c1 (centres unmarked) [Compound 211, N-(1-(3,4-dichlorophenyl)-2-(dimethylamino)ethyl)-4-(pyridin-2-yloxy)benzenesulfonamide] | 75
CCOc1ccccc1CNS(=O)(=O)c1ccc(OC(F)(F)F)cc1 [Compound 76, N-(2-ethoxybenzyl)-4-(trifluoromethoxy)benzenesulfonamide] | 60
CN(C)CC(NS(=O)(=O)c1ccc(Oc2ccccc2)cc1)c1ccc(Cl)c(Cl)c1 (centres unmarked) [Compound 138, N-(1-(3,4-dichlorophenyl)-2-(dimethylamino)ethyl)-4-phenoxybenzenesulfonamide] | 10.5
O=S(=O)(NC(CC1CC1)c1cc(F)cc(Br)c1)c1ccc(OC(F)(F)F)cc1 (centres unmarked) [Compound 72, N-(1-(3-bromo-5-fluorophenyl)-2-cyclopropylethyl)-4-(trifluoromethoxy)benzenesulfonamide] | 17
O=S(=O)(NCC1(c2cccc(C(F)(F)F)c2)CCCC1)c1ccc(OC(F)(F)F)cc1 [Compound 262, 4-(trifluoromethoxy)-N-((1-(3-(trifluoromethyl)phenyl)cyclopentyl)methyl)benzenesulfonamide] | 63.1
CCOC(=O)[C@@H](Cc1ccc(OC)cc1)NS(=O)(=O)c1ccc(OC(F)(F)F)cc1 [Compound 43, Ethyl (R)-3-(4-methoxyphenyl)-2-((4-(trifluoromethoxy)phenyl)sulfonamido)propanoate] | 72

Same assay, conditions: LNCaP cell line, 48 hours

GI50 [µM] | SMILES
15.8 | CN(C)CC(NS(=O)(=O)c1ccc(Oc2ccccc2)cc1)c1ccc(Cl)c(Cl)c1 (single isomer, unassigned) [Compound 171, N-(1-(3,4-dichlorophenyl)-2-(dimethylamino)ethyl)-4-phenoxybenzenesulfonamide]
21.6 | CN(C)CC(NS(=O)(=O)c1ccc(OC(F)(F)F)c(Cl)c1)c1ccc(Cl)c(Cl)c1 (single isomer, unassigned) [Compound 202, 3-chloro-N-(1-(3,4-dichlorophenyl)-2-(dimethylamino)ethyl)-4-(trifluoromethoxy)benzenesulfonamide]
49.6 | O=S(=O)(NC(CC1CC1)c1ccc(F)cc1Br)c1ccc(OC(F)(F)F)cc1 (single isomer, unassigned) [Compound 142b, N-(1-(2-bromo-4-fluorophenyl)-2-cyclopropylethyl)-4-(trifluoromethoxy)benzenesulfonamide]
